The results in this text go back to patent US20170015649A1, “N-Thio-anthranilamid compounds and their use as pesticides” (BASF SE, priority 2005, published 2017).

For orientation: mortality means the percentage killed.

The structures appear in SMILES notation. Where two headings read alike, the source gives them in different places.

In assay [1] the test system is Diamond Back Moth (Plutella xylostella). Description: Activity against diamond back moth, cabbage leaf disk dip. Format: in vivo. The settings on record: foliar. The procedure:
The active compounds were formulated in 50:50 acetone:water and 0.1% (vol/vol) Alkamuls EL 620 surfactant. A 6 cm leaf disk of cabbage leaves was dipped in the test solution for 3 seconds and allowed to air dry in a Petri plate lined with moist filter paper. The leaf disk was inoculated with 10 third instar larvae and kept at 25-27° C. and 50-60% humidity for 3 days. Mortality was assessed after 72 h of treatment.

Assay [2] has as its system Southern Armyworm (Spodoptera eridania), 2nd Instar Larvae. Description: whole plant or invertebrate. In kind it is in vivo. The settings on record: in Phaseolus lunatus, foliar, 120 h. The procedure:
The active compounds were formulated for testing the activity against insects and arachnids as a 10.000 ppm solution in a mixture of 35% acetone and water, which was diluted with water, if needed.
A Sieva lima bean leaf was dipped in the test solution and allowed to dry. The leaf was then placed in a petri dish containing a filter paper on the bottom and ten 2nd instar caterpillars. At 5 days, observations are made of mortality and reduced feeding.

Assay [3] concerns Cotton Aphid (Aphis gossypii). The assay can be described thus: Activity against cotton aphid, cotton cotyledon dip. In kind it is in vivo. The settings on record: 120 h, cotyledons dipped, after 5 days. The source says: (§1) The active compounds were formulated in 50:50 acetone:water and 100 ppm Kinetic™ surfactant.
Cotton plants at the cotyledon stage (one plant per pot) were infested by placing a heavily infested leaf from the main colony on top of each cotyledon. The aphids were allowed to transfer to the host plant overnight, and the leaf used to transfer the aphids was removed. The cotyledons were dipped in the test solution and allowed to dry. After 5 days, mortality counts were made.

The subject of assay [4] is Tobacco Budworm (Heliothis virescens). The assay can be described thus: whole plant or invertebrate. The settings on record: 144 h.
In assay [5] the test system is Mediterranean Fruitfly (Ceratitis capitata). The assay can be described thus: Activity against Mediterranean fruitfly, eggs in microtiterplates. In kind it is in vivo. The settings on record: 144 h, eggs sprayed with 5 μl test solution, 6 days. The procedure:
50 to 80 eggs were placed into microtiterplates filled with 0.5% agar-agar and 14% diet in water. […] Mortality was assessed on the basis of the agility of the hatched larvae. Tests were replicated 2 times.

Assay [6] has as its system Silverleaf Whitefly (Bemisia argentifolii). Description: Activity against silverleaf whitefly, cotton cotyledon dip. Format: in vivo. The settings on record: 72 h, cotyledons dipped, adults, 3 days after treatment. The procedure:
as §1
Selected cotton plants were grown to the cotyledon state (one plant per pot). The cotyledons were dipped into the test solution to provide complete coverage of the foliage and placed in a well-vented area to dry. Each pot with treated seedling was placed in a plastic cup and 10 to 12 whitefly adults (approximately 3-5 day old) were introduced. The insects were collected using an aspirator and an 0.6 cm, non-toxic Tygon™ tubing (R-3603) connected to a barrier pipette tip. The tip, containing the collected insects, was then gently inserted into the soil containing the treated plant, allowing insects to crawl out of the tip to reach the foliage for feeding. The cups were covered with a reusable screened lid (150 micron mesh polyester screen PeCap from Tetko Inc). Test plants were maintained in the holding room at about 25° C. and 20-40% relative humidity for 3 days avoiding direct exposure to the fluorescent light (24 hour photoperiod) to prevent trapping of heat inside the cup. Mortality was assessed 3 days after treatment of the plants.

The test system of assay [7] is Boll Weevil (Anthonomus grandis). The assay can be described thus: Activity against boll weevil, eggs in microtiterplates. Format: in vivo. The settings on record: eggs sprayed with 20 μl test solution, 3 to 5 days. The procedure: 10 to 15 eggs were placed into microtiterplates filled with 2% agar-agar in water and 300 ppm formaline. […] Mortality was assessed on the basis of the remaining unhatched eggs or larvae on the agar surface and/or quantity and depth of the digging channels caused by the hatched larvae. Tests were replicated 2 times.

Assay [8] concerns Vetch Aphid (Megoura viciae). The assay can be described thus: Activity against vetch aphid, bean leaf disks. The settings on record: foliar, 144 h. In kind it is in vivo. The procedure:
Bean leaf disks were placed into microtiterplates filled with 0.8% agar-agar and 2.5 ppm OPUS™. The leaf disks were sprayed with 2.5 μl of the test solution and 5 to 8 adult aphids were placed into the microtiterplates which were then closed and kept at 22-24° C. and 35-45% under fluorescent light for 6 days. Mortality was assessed on the basis of vital, reproduced aphids. Tests were replicated 2 times.

Where [9] appears, read: 300 ppm, leaf disk dipped, third instar larvae, after 72 h, read-out: mortality.
[10] abbreviates: 300 ppm, leaf dipped, at 5 days, read-out: mortality.
Setting [11] is: 2500 ppm, leaf disks sprayed with 2.5 μl, 6 days, compared to 0% mortality of untreated controls, read-out: mortality.

Turning to `CCN(C)S(=O)(=O)NC(=O)c1cccc(C)c1NC(=O)c1cc(Br)nn1-c1ncccc1Cl` [I.1-27], the mortality at 300 ppm in assay [1] (72 h) and in assay [2] was above 75% in each case.
Turning to `CCS(C)=NC(=O)c1cc(I)cc(C)c1NC(=O)c1cc(C(F)(F)F)nn1-c1ncccc1Cl` (stereo not drawn) [I.3-30], the mortality at 300 ppm in assay [1] (setting [9]) was above 75%; in assay [3], above 50%; in assay [6] it was above 90%; in assay [2] (setting [10]), above 75%. Besides, the mortality at 2500 ppm in assay [4], in assay [5], in assay [7] and in assay [8] (setting [11]) was above 75% throughout.
On to `Cc1cc(Cl)cc(C(=O)N=S2(=O)CCCCC2)c1CC(=O)c1cc(Br)nn1-c1ccccc1Cl` [I.4-22, 2-{2-[5-Bromo-2-(2-chloro-phenyl)-2H-pyrazol-3-yl]-2-oxo-ethyl}-5-chloro-3-methyl-N-(1-oxo-hexahydro-1lambda*6*-thiopyran-1-ylidene)-benzamide], for which the mortality at 300 ppm in assay [1] (setting [9]) and in assay [2] (setting [10]) was above 75% each time. Further, the mortality at 2500 ppm in assay [4], in assay [5], in assay [7] and in assay [8] (setting [11]) was above 75% throughout.
For `CCS(C)=NC(=O)c1cc(Cl)cc(C)c1NC(=O)c1cc(Br)nn1-c1ncccc1Cl` (stereo not drawn) [I.3-25], the mortality at 300 ppm in assay [1] (setting [9]) is above 75%; in assay [3], above 50%; in assay [6], above 90%; in assay [2] (setting [10]) it was above 75%. Moreover, the mortality at 2500 ppm in assay [4], in assay [5], in assay [7] and in assay [8] (setting [11]) was above 75% throughout.
As for `Cc1cc(I)cc(C(=O)N=S(C)C)c1NC(=O)c1cc(C(F)(F)F)nn1-c1ncccc1Cl` [I.3-23], the mortality at 300 ppm is above 75% in assay [1] (setting [9]), above 50% in assay [3], above 90% in assay [6] and above 75% in assay [2] (setting [10]). Moreover, the mortality at 2500 ppm in assay [4], in assay [5], in assay [7] and in assay [8] (setting [11]) was above 75% each time.
Compound `Cc1cccc(C(=O)NS(=O)(=O)N(C)C)c1NC(=O)c1cc(Br)nn1-c1ncccc1Cl` [I.1-30] showed a mortality at 300 ppm in assay [2] above 75%.
Consider `Cc1cc(Cl)cc(C(=O)N=S(C)C)c1NC(=O)c1cc(C(F)(F)F)nn1-c1ncccc1Cl` [I.3-8], for which the mortality at 300 ppm in assay [1] (setting [9]) is above 75%; in assay [3], above 50%; in assay [6], above 90%; in assay [2] (setting [10]), above 75%. The mortality at 2500 ppm in assay [4], in assay [5], in assay [7] and in assay [8] (setting [11]) was above 75% throughout.
`Cc1cc(C#N)cc(C(=O)N=S(C)C)c1NC(=O)c1cc(C(F)(F)F)nn1-c1ncccc1Cl` [I.3-55]: the mortality at 300 ppm in assay [1] (setting [9]) was above 75%. The mortality at 2500 ppm in assay [4], in assay [5], in assay [7] and in assay [8] (setting [11]) was above 75% each time.
With `CCS(C)=NC(=O)c1cccc(C)c1NC(=O)c1cc(C(F)(F)F)nn1-c1ncccc1Cl` (stereo not drawn) [I.3-29], the mortality at 300 ppm is above 75% in assay [1] (setting [9]), above 50% in assay [3] and above 75% in assay [2] (setting [10]). For the same compound, the mortality at 2500 ppm in assay [4], in assay [5], in assay [7] and in assay [8] (setting [11]) was above 75% in each case.
For the compound `CCS(C)=NC(=O)c1cccc(C)c1NC(=O)c1cc(Br)nn1-c1ncccc1Cl` (stereo not drawn) [I.3-26], the mortality at 300 ppm is above 75% in assay [1] (setting [9]), above 50% in assay [3], above 90% in assay [6] and above 75% in assay [2] (setting [10]). The mortality at 2500 ppm in assay [4], in assay [5], in assay [7] and in assay [8] (setting [11]) was above 75% each time.
Take `CCN(C)S(=O)(=O)NC(=O)c1cc(Cl)cc(C)c1NC(=O)c1cc(Br)nn1-c1ncccc1Cl` [I.1-7]: the mortality at 300 ppm in assay [1] (72 h) and in assay [2] was above 75% throughout.
On to `CCS(C)=NC(=O)c1cc(I)cc(C)c1NC(=O)c1cc(Br)nn1-c1ncccc1Cl` (stereo not drawn) [I.3-27], for which the mortality at 300 ppm is above 75% in assay [1] (setting [9]), above 50% in assay [3], above 90% in assay [6] and above 75% in assay [2] (setting [10]). Further, the mortality at 2500 ppm in assay [4], in assay [5], in assay [7] and in assay [8] (setting [11]) was above 75% throughout.
Regarding `Cc1cc(Cl)cc(C(=O)NS(=O)(=O)N(C)C)c1NC(=O)c1cc(Br)nn1-c1ncccc1Cl` [I.1-9], the mortality at 300 ppm in assay [1] (72 h) and in assay [2] was above 75% in each case.
`CCN(CC)S(=O)(=O)NC(=O)c1cccc(C)c1NC(=O)c1cc(C(F)(F)F)nn1-c1ncccc1Cl` [I.1-53]: the mortality at 2500 ppm in assay [4] and in assay [8] was above 75% in each case. The compound also displayed a mortality at 300 ppm in assay [2] above 75%.
As to `Cc1cc(I)cc(C(=O)N=S(C)C)c1NC(=O)c1cc(Br)nn1-c1ncccc1Cl` [I.3-22], the mortality at 300 ppm in assay [1] (setting [9]) was above 75%; in assay [3], above 50%; in assay [6], above 90%; in assay [2] (setting [10]) it was above 75%. In addition, the mortality at 2500 ppm in assay [4], in assay [5], in assay [7] and in assay [8] (setting [11]) was above 75% in each case.
With `CCS(CC)=NC(=O)c1cc(Cl)cc(C)c1NC(=O)c1cc(Br)nn1-c1ncccc1Cl` [I.3-3], the mortality at 300 ppm in assay [3] is above 50%; in assay [6] it was above 90%; in assay [2] (setting [10]), above 75%. Also, the mortality at 2500 ppm in assay [4], in assay [7] and in assay [8] (setting [11]) was above 75% in each case.
As for `CCN(C)S(=O)(=O)NC(=O)c1cc(Cl)cc(C)c1NC(=O)c1cc(C(F)(F)F)nn1-c1ncccc1Cl` [I.1-45], the mortality at 300 ppm in assay [1] (72 h) and in assay [2] was above 75% throughout.
With `CCN(C)S(=O)(=O)NC(=O)c1cccc(C)c1NC(=O)c1cc(C(F)(F)F)nn1-c1ncccc1Cl` [I.1-61], the mortality at 300 ppm in assay [1] (72 h) and in assay [2] was above 75% each time.
Regarding `CCS(C)=NC(=O)c1cc(C#N)cc(C)c1NC(=O)c1cc(Br)nn1-c1ncccc1Cl` (stereo not drawn) [I.3-61], the mortality at 300 ppm in assay [1] (setting [9]) was above 75%.
As to `Cc1cccc(C(=O)N=S(C)C)c1NC(=O)c1cc(C(F)(F)F)nn1-c1ncccc1Cl` [I.3-24], the mortality at 300 ppm in assay [1] (setting [9]) was above 75%; in assay [3] it was above 50%; in assay [2] (setting [10]), above 75%. Also, the mortality at 2500 ppm in assay [4], in assay [5], in assay [7] and in assay [8] (setting [11]) was above 75% in each case.
For the compound `Cc1cc(C#N)cc(C(=O)N=S(C)C)c1NC(=O)c1cc(Br)nn1-c1ncccc1Cl` [I.3-60], the mortality at 300 ppm in assay [1] (setting [9]) was above 75%.
As to `Cc1cc(Cl)cc(C(=O)NS(=O)(=O)N(C)C)c1NC(=O)c1cc(C(F)(F)F)nn1-c1ncccc1Cl` [I.1-47], the mortality at 300 ppm in assay [1] (72 h) and in assay [2] was above 75% throughout.
